In PubChem BioAssay (NCI):
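Where inhibition never reached the appropriate level, the endpoint shown equals the highest concentration tested. Otherwise, values were interpolated linearly from a five-concentration, 48-hour dose response in 96-well plates. GI50 = concentration required for 50% inhibition of growth. TGI marks complete inhibition of growth.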

Legend:
Experiment in all cases: DTP human tumour cell line panel, 48 h
[1] = tested on: 786-0 renal
[2] = tested on: A498 renal
[3] = tested on: A549 NSCLC
[4] = tested on: ACHN renal
[5] = tested on: BT-549 breast
[6] = tested on: CAKI-1 renal
[7] = tested on: CCRF-CEM leukemia
[8] = tested on: COLO 205 colon
[9] = tested on: DU-145 prostate
[10] = tested on: HCC-2998 colon
[11] = tested on: HCT-116 colon
[12] = tested on: HCT-15 colon
[13] = tested on: HOP-62 NSCLC
[14] = tested on: HOP-92 NSCLC
[15] = tested on: HS 578T breast
[16] = tested on: HT29 colon
[17] = tested on: IGROV1 ovarian
[18] = tested on: K-562 leukemia
[19] = tested on: KM12 colon
[20] = tested on: LOX IMVI melanoma
[21] = tested on: M14 melanoma
[22] = tested on: MALME-3M melanoma
[23] = tested on: MCF7 breast
[24] = tested on: MDA-MB-231 breast
[25] = tested on: MDA-MB-435
[26] = tested on: MOLT-4 leukemia
[27] = tested on: NCI-H226 lung
[28] = tested on: NCI-H460 lung
[29] = tested on: NCI-H522 lung
[30] = tested on: NCI/ADR-RES ovarian
[31] = tested on: OVCAR-3 ovarian
[32] = tested on: OVCAR-4 ovarian
[33] = tested on: OVCAR-5 ovarian
[34] = tested on: OVCAR-8 ovarian
[35] = tested on: RPMI-8226 leukemia
[36] = tested on: RXF 393 renal
[37] = tested on: SF-268 CNS
[38] = tested on: SF-295 CNS
[39] = tested on: SF-539 CNS
[40] = tested on: SK-MEL-2 melanoma
[41] = tested on: SK-MEL-28 melanoma
[42] = tested on: SK-MEL-5 melanoma
[43] = tested on: SK-OV-3 ovarian
[44] = tested on: SN12C renal
[45] = tested on: SNB-19 CNS
[46] = tested on: SNB-75 CNS
[47] = tested on: SR leukemia
[48] = tested on: SW-620 colon
[49] = tested on: T-47D breast
[50] = tested on: TK-10 renal
[51] = tested on: U251 CNS
[52] = tested on: UACC-257 melanoma
[53] = tested on: UO-31 renal
[54] = tested on: EKVX NSCLC
[55] = tested on: NCI-H23 lung
[56] = tested on: PC-3 prostate
[57] = tested on: UACC-62 melanoma

C[CH2][Pb]([CH2]C)([CH2]C)[O]C(=O)COc1ccccc1
GI50 [1]: 2130 nM | TGI [1]: 5720 nM | GI50 [2]: 1750 nM | TGI [2]: 6610 nM | GI50 [3]: 1820 nM | TGI [3]: 5650 nM | GI50 [4]: 2510 nM | TGI [4]: 11300 nM | GI50 [5]: 1780 nM | TGI [5]: 6400 nM | GI50 [6]: 1950 nM | TGI [6]: 6180 nM | GI50 [7]: 1230 nM | TGI [7]: 4860 nM | GI50 [8]: 1960 nM | TGI [8]: 4510 nM | GI50 [9]: 2430 nM | TGI [9]: 10700 nM | GI50 [10]: 1650 nM | TGI [10]: 3850 nM | GI50 [11]: 1440 nM | TGI [11]: 2900 nM | GI50 [12]: 1980 nM | TGI [12]: 11600 nM | GI50 [13]: 1640 nM | TGI [13]: 3760 nM | GI50 [14]: 390 nM | TGI [14]: 4100 nM | GI50 [15]: 1530 nM | TGI [15]: 5200 nM | GI50 [16]: 1740 nM | TGI [16]: 4610 nM | GI50 [17]: 1640 nM | TGI [17]: 6520 nM | GI50 [18]: 1470 nM | TGI [18]: 6640 nM | GI50 [19]: 1510 nM | TGI [19]: 5840 nM | GI50 [20]: 1400 nM | TGI [20]: 3220 nM | GI50 [21]: 1390 nM | TGI [21]: 6670 nM | GI50 [22]: 441 nM | TGI [22]: 7110 nM | GI50 [23]: 1770 nM | TGI [23]: 9340 nM | GI50 [24]: 1630 nM | TGI [24]: 4840 nM | GI50 [25]: 214 nM | TGI [25]: 502 nM | GI50 [26]: 1950 nM | TGI [26]: 4630 nM | GI50 [27]: 1830 nM | TGI [27]: 6040 nM | GI50 [28]: 2210 nM | TGI [28]: 5940 nM | GI50 [29]: 562 nM | TGI [29]: 2110 nM | GI50 [30]: 1970 nM | TGI [30]: 9240 nM | GI50 [31]: 1700 nM | TGI [31]: 5270 nM | GI50 [32]: 949 nM | TGI [32]: 4960 nM | GI50 [33]: 1740 nM | TGI [33]: 4610 nM | GI50 [34]: 1760 nM | TGI [34]: 5680 nM | GI50 [35]: 1030 nM | TGI [35]: 3120 nM | GI50 [36]: 1050 nM | TGI [36]: 3260 nM | GI50 [37]: 1670 nM | TGI [37]: 4540 nM | GI50 [38]: 1510 nM | TGI [38]: 3130 nM | GI50 [39]: 1810 nM | TGI [39]: 4630 nM | GI50 [40]: 382 nM | TGI [40]: 1730 nM | GI50 [41]: 784 nM | TGI [41]: 11000 nM | GI50 [42]: 1190 nM | TGI [42]: 2560 nM | GI50 [43]: 2080 nM | TGI [43]: 6100 nM | GI50 [44]: 2390 nM | TGI [44]: 9610 nM | GI50 [45]: 2360 nM | TGI [45]: 11300 nM | GI50 [46]: 1240 nM | TGI [46]: 11300 nM | GI50 [47]: 595 nM | TGI [47]: 3880 nM | GI50 [48]: 641 nM | TGI [48]: 2470 nM | GI50 [49]: 757 nM | TGI [49]: 8820 nM | GI50 [50]: 1630 nM | TGI [50]: 5210 nM | GI50 [51]: 1740 nM | TGI [51]: 3890 nM | GI50 [52]: 557 nM | TGI [52]: 4750 nM | GI50 [53]: 1050 nM | TGI [53]: 3700 nM

Nc1ccc(C(=O)NN2C(=O)[C@H](Cl)C2c2ccc(Cl)cc2)cc1 (some centres not stated)
TGI [1]: 2600 nM | GI50 [2]: 1620 nM | TGI [2]: 3210 nM | TGI [3]: 8490 nM | TGI [4]: 2480 nM | GI50 [5]: 1950 nM | TGI [5]: 4900 nM | TGI [6]: 2940 nM | GI50 [7]: 310 nM | TGI [7]: 1410 nM | TGI [8]: 4140 nM | TGI [9]: 4060 nM | TGI [54]: 12800 nM | TGI [10]: 3010 nM | TGI [11]: 476 nM | TGI [12]: 2790 nM | TGI [13]: 3120 nM | TGI [15]: 4020 nM | TGI [16]: 610 nM | TGI [17]: 4540 nM | TGI [19]: 2990 nM | GI50 [20]: 113 nM | TGI [20]: 233 nM | TGI [21]: 3110 nM | TGI [22]: 4130 nM | TGI [24]: 3550 nM | TGI [25]: 4160 nM | TGI [27]: 2650 nM | TGI [55]: 2340 nM | TGI [28]: > 100000 nM | TGI [29]: > 100000 nM | TGI [30]: 3830 nM | TGI [31]: 2550 nM | TGI [32]: > 100000 nM | TGI [33]: 8230 nM | TGI [34]: 3680 nM | TGI [56]: 3200 nM | TGI [35]: 5320 nM | TGI [36]: > 100000 nM | TGI [37]: 1920 nM | TGI [38]: 9310 nM | TGI [39]: 3600 nM | TGI [40]: 4370 nM | TGI [41]: 1800 nM | TGI [42]: 4270 nM | TGI [43]: 4270 nM | TGI [44]: 2830 nM | TGI [45]: 3690 nM | TGI [46]: 797 nM | TGI [48]: 4960 nM | TGI [49]: 3880 nM | TGI [50]: 2570 nM | TGI [51]: 2260 nM | TGI [52]: 3630 nM | TGI [57]: 3690 nM | TGI [53]: 4350 nM
